Data as given in patent US20230374030A1, “SOLID-STATE FORMS OF RELUGOLIX” (MACFARLAN SMITH LIMITED, priority 2019, published 2023).

Key:
Assay type in all cases: physicochemical
[1] = Dynamic vapor sorption (DVS); settings: for weight loss in DVS: relative humidity about 0 to 95%
Description: DVS samples are analyzed using a TA Instruments Q5000SA gravimetric water sorption analyzer. The relative humidity is adjusted between about 0-95% and the weight of the sample is continuously monitored and recorded with respect to the relative humidity and time.

[2] = Solid-state stability on drying under vacuum
Description: Form A of the DMF solvate of relugolix is stable, i.e., it is unchanged after prolonged drying (e.g., about 2 days) under vacuum at about 70° C.

[3] = Solid-state stability under humidity (storage at high humidity; XRPD after DVS); settings: for stability at various humidity levels: XRPD analysis after DVS

weight loss in DVS [1] | XRPD changes after drying ([2]; about 18 hours at about 30° C. under vacuum) | stability at various humidity levels [3] | loss of mass in DVS ([1]; at about 90% RH) | stability after prolonged drying ([2]; about 2 days under vacuum at about 70° C.) | stability under humidity ([3]; about 97% humidity, ambient temperatures, over a month) | water absorption in DVS (and secretion of it all) ([1]; relative humidity about 0 to about 95%) [%] | SMILES
about 2% | no changes | remains stable |  |  |  |  | CONC(=O)Nc1ccc(-c2sc3c(c2CN(C)C)c(=O)n(-c2ccc(OC)nn2)c(=O)n3Cc2c(F)cccc2F)cc1 [Form A of anhydrous relugolix, 1-[4-[1-[(2,6-difluorophenyl)-methyl]-5-[(dimethylamino)methyl]-3-(6-methoxypyridazin-3-yl)-2,4-dioxothieno-[2,3-d]pyrimidin-6-yl]phenyl]-3-methoxyurea]
 |  |  | about 1% | unchanged | remains unchanged |  | CONC(=O)Nc1ccc(-c2sc3c(c2CN(C)C)c(=O)n(-c2ccc(OC)nn2)c(=O)n3Cc2c(F)cccc2F)cc1 [Form A of the DMF solvate of relugolix, 1-[4-[1-[(2,6-difluorophenyl)-methyl]-5-[(dimethylamino)methyl]-3-(6-methoxypyridazin-3-yl)-2,4-dioxothieno-[2,3-d]pyrimidin-6-yl]phenyl]-3-methoxyurea]
about 7% |  | remains stable |  |  |  |  | CONC(=O)Nc1ccc(-c2sc3c(c2CN(C)C)c(=O)n(-c2ccc(OC)nn2)c(=O)n3Cc2c(F)cccc2F)cc1 [Form B of anhydrous relugolix, 1-[4-[1-[(2,6-difluorophenyl)-methyl]-5-[(dimethylamino)methyl]-3-(6-methoxypyridazin-3-yl)-2,4-dioxothieno-[2,3-d]pyrimidin-6-yl]phenyl]-3-methoxyurea]
 |  | remains stable |  |  |  | ~2 | CONC(=O)Nc1ccc(-c2sc3c(c2CN(C)C)c(=O)n(-c2ccc(OC)nn2)c(=O)n3Cc2c(F)cccc2F)cc1 [Form C of anhydrous relugolix, 1-[4-[1-[(2,6-difluorophenyl)-methyl]-5-[(dimethylamino)methyl]-3-(6-methoxypyridazin-3-yl)-2,4-dioxothieno-[2,3-d]pyrimidin-6-yl]phenyl]-3-methoxyurea]
